# Source: US20260262642A1, “Compositions Containing Guanidine and 1,2-Benzisothiazoline-3-On” (priority 2023, published 2026)
# Counter-ions that a name gives are not always drawn.
# Columns and labels:
# Assay type in all cases: cell-based
# [1] = tested on: Yeast mixture (Pichia manshurica DSM 12249, Rhodotorula mucilaginosa DSM 12248, Candida boidinii DSM 13622, Candida albicans DSM 1386); assay: Stability of all-purpose detergent (cleaning composition) against microbial infestation, inoculated with yeast mixture, semiquantitative streak evaluation; parameters: key to Yeast growth Day 1: 0: No growth; Minimal growth, 1 to 10 colonies visible over the entire streak; 2: Light growth, maximum 100 colonies; Moderate growth, maximum 300 to 400 colonies; Uniform growth, >400 colonies, single colonies still clearly recognizable; 5: Heavy growth, too many colonies to count, but no growth over the entire streak; 6: Full growth, barely any single colonies still apparent, growth over the entire streak; conditions: for Yeast growth Day 1: directly after inoculation; for Yeast growth Day 3: incubation at 30° C.
# Description: (§1) The detergent was a heavy-duty laundry detergent without preservatives (pH 8.1), and the cleaning composition was an all-purpose detergent without preservatives (pH 7.6), each likewise made in the laboratory, without addition of the otherwise usual conventional preservatives. To each paint was added—individually and in combination—particular concentrations of guanidinium hydrochloride and benzisothiazolinone (BIT). The detergent and cleaning composition were admixed with particular concentrations of guanidinium hydrochloride and benzisothiazolinone (BIT). The resultant batches of the paint thus prepared were inoculated with a mixture of various bacteria; the batches of the detergent and cleaning composition thus prepared were inoculated with a yeast mixture. • Pichia manshurica DSM 12249 • Rhodotorula mucilaginosa DSM 12248 • Candida boidinii DSM 13622 • Candida albicans DSM 1386 The inoculum was added to the respective sample in each inoculation at 2% (v/w) as a fresh cell suspension in a physiological saline solution (0.9% NaCl). The cell count of the inoculum added was 10^9/ml for the bacteria mixture, 10^8/ml for the yeast mixture, consisting in equal parts of the individual bacteria strains or yeast strains. The cell suspension of the yeast mixture was produced by growing the yeasts on Sabouraud glucose-agar at 25° C. for 48 hours and washing down the cell lawn with physiological saline solution (0.9% NaCl). Further steps for establishment of a cell count of the inoculum suspension of 10^8/ml were effected analogously to the production of the bacteria suspension. In examples 2 to 4, the samples were inoculated once with the respective cell suspensions (2% v/w) and the development of the bacteria or yeasts was followed by a semiquantitative evaluation method. In the inoculated samples, microbial infestation was evaluated in each case directly after inoculation on day 1 and on day 6 (emulsion paint) after incubation at 30° C. for a further 5 days, or on day 3 (detergent, cleaning composition) after incubation at 30° C. for a further 2 days. For this purpose, an aliquot was taken from each sample after homogenization using a sterile plastic inoculation loop (10 μl) and streaked evenly on agar plates (tryptic soy agar in the case of bacteria, Sabouraud glucose-agar in the case of yeasts). The streaked agar plates were then incubated at 30° C. for 48 hours (bacteria) or at 25° C. for 72 hours (yeasts). After incubation, the bacterial or yeast colonies that had grown on the agar plates were visually evaluated and quantified according to the following scheme: [table] Inoculation 2% (w/v) with Yeast Mixture, Cell Count 10^8/ml
# [2] = tested on: Pseudomonas spec. DSM 115322; assay: Study of the synergistic interaction: minimum inhibitory concentrations (MICs) and synergy index in Müller-Hinton broth, microplates; conditions: 48 hours at 30° C.; for Synergy index Qa/QA + Qb/QB: sole agent
# Description: The test organism used was a Gram-negative bacterial species from the group of pseudomonads, Pseudomonas spec. DSM 115322. For this purpose, mixtures with different concentrations of the respective actives were prepared and tested for their effect on pseudomonads. The test was run in Müller-Hinton broth MHB with a cell density of 10^6 microbes per ml. The incubation was run in microplates at 30° C. for 48 hours. After 48 hours, the batches were evaluated for turbidity resulting from growth, and optical density was additionally determined photometrically. In this way, the minimum inhibitory concentrations (MICs) of the two actives were determined individually and in combination. The synergism that occurred was represented numerically by calculating the synergy index (SI). The calculation was done according to the standard method of F. C. Kull et al., Applied Microbiology, vol. 9 (1961), p. 538. This involves calculating the synergy index (SI) by the following formula: […] Calculation of the synergy index of guanidine and BIT with respect to Pseudomonas spec.
# [3] = tested on: Yeast mixture (Pichia manshurica DSM 12249, Rhodotorula mucilaginosa DSM 12248, Candida boidinii DSM 13622, Candida albicans DSM 1386); assay: Stability of heavy-duty laundry detergent against microbial infestation, inoculated with yeast mixture, semiquantitative streak evaluation; parameters: key: 0: No growth; Minimal growth, 1 to 10 colonies visible over the entire streak; 2: Light growth, maximum 100 colonies; Moderate growth, maximum 300 to 400 colonies; Uniform growth, >400 colonies, single colonies still clearly recognizable; 5: Heavy growth, too many colonies to count, but no growth over the entire streak; 6: Full growth, barely any single colonies still apparent, growth over the entire streak; conditions: for Yeast growth Day 1: directly after inoculation; for Yeast growth Day 3: incubation at 30° C.
# Description: as §1, with “w/v” for “(w/v)”, “a East” for “Yeast”
# [4] = tested on: Bacteria mixture (Pseudomonas spp. DSM 33933, Pseudomonas aeruginosa DSM 33935, Pseudomonas oleovorans DSM 33936, Pseudomonas spec. DSM 33937, Pseudomonas …); assay: Stability of emulsion paint against microbial infestation, inoculated with bacteria mixture, semiquantitative streak evaluation; parameters: key: 0: No growth; Minimal growth, 1 to 10 colonies visible over the entire streak; 2: Light growth, maximum 100 colonies; Moderate growth, maximum 300 to 400 colonies; Uniform growth, >400 colonies, single colonies still clearly recognizable; 5: Heavy growth, too many colonies to count, but no growth over the entire streak; 6: Full growth, barely any single colonies still apparent, growth over the entire streak; conditions: for Bacterial growth Day 1: directly after inoculation; for Bacterial growth Day 6: incubation at 30° C.
# Description: The detergent was a heavy-duty laundry detergent without preservatives (pH 8.1), and the cleaning composition was an all-purpose detergent without preservatives (pH 7.6), each likewise made in the laboratory, without addition of the otherwise usual conventional preservatives. To each paint was added—individually and in combination—particular concentrations of guanidinium hydrochloride and benzisothiazolinone (BIT). The detergent and cleaning composition were admixed with particular concentrations of guanidinium hydrochloride and benzisothiazolinone (BIT). The resultant batches of the paint thus prepared were inoculated with a mixture of various bacteria; the batches of the detergent and cleaning composition thus prepared were inoculated with a yeast mixture. • Pseudomonas spp. (Pseudomonas oleovorans group) DSM 33933 • Pseudomonas aeruginosa DSM 33935 • Pseudomonas oleovorans DSM 33936 • Pseudomonas spec. DSM 33937 • Pseudomonas aeruginosa DSM 33938 The inoculum was added to the respective sample in each inoculation at 2% (v/w) as a fresh cell suspension in a physiological saline solution (0.9% NaCl). The cell count of the inoculum added was 10^9/ml for the bacteria mixture, 10^8/ml for the yeast mixture, consisting in equal parts of the individual bacteria strains or yeast strains. The cell suspension of the bacteria mixture was produced by growing the individual bacteria at 30° C. for 24 h in liquid culture on a shaker. The growth medium used for the bacteria was Müller-Hinton liquid medium. After growing, the individual liquid cultures were centrifuged, and the cells were resuspended in physiological saline solution. In order to adjust the mixture to a total cell count of 10^9/ml, the individual bacteria suspensions, if necessary, were diluted accordingly before being combined with saline solution. The cell count of the inoculum was determined in each case by chamber counting. In examples 2 to 4, the samples were inoculated once with the respective cell suspensions (2% v/w) and the development of the bacteria or yeasts was followed by a semiquantitative evaluation method. In the inoculated samples, microbial infestation was evaluated in each case directly after inoculation on day 1 and on day 6 (emulsion paint) after incubation at 30° C. for a further 5 days, or on day 3 (detergent, cleaning composition) after incubation at 30° C. for a further 2 days. For this purpose, an aliquot was taken from each sample after homogenization using a sterile plastic inoculation loop (10 μl) and streaked evenly on agar plates (tryptic soy agar in the case of bacteria, Sabouraud glucose-agar in the case of yeasts). […] After incubation, the bacterial or yeast colonies that had grown on the agar plates were visually evaluated and quantified according to the following scheme: [table] […]
# [5] = all-purpose detergent +100 ppm BIT
# [6] = all-purpose detergent +8000 ppm guanidine hydrochloride (4944 ppm guanidine)
# [7] = detergent +8000 ppm guanidine hydrochloride (4944 ppm guanidine)
# [8] = emulsion paint +6000 ppm guanidine hydrochloride (3708 ppm guanidine)
"Qa (guanidine): concentration of guanidine as the sole agent that shows an endpoint (QA, MIC) ([2]; guanidine alone (0 ppm BIT), added as guanidine hydrochloride, MHB) [ppm]",SMILES,"Yeast growth Day 1 [1, 5]","Yeast growth Day 3 [1, 5]","Qb (BIT): concentration of BIT as the sole agent that shows an endpoint (QB, MIC) ([2]; BIT alone (0 ppm guanidine), MHB, 10^6 microbes per ml) [ppm]",Synergy index Qa/QA + Qb/QB [2],Yeast growth Day 1 ([3]; detergent +100 ppm BIT),Yeast growth Day 3 ([3]; detergent +100 ppm BIT),Bacterial growth Day 1 ([4]; emulsion paint +500 ppm BIT),Bacterial growth Day 6 ([4]; emulsion paint +500 ppm BIT),"Yeast growth Day 1 [1, 6]","Yeast growth Day 3 [1, 6]","Yeast growth Day 1 [3, 7]","Yeast growth Day 3 [3, 7]","Bacterial growth Day 1 [4, 8]","Bacterial growth Day 6 [4, 8]"
,"O=c1[nH]sc2ccccc12 [BIT, 1,2-benzisothiazolin-3-one]",6,"4 (Uniform growth, >400 colonies, single colonies still clearly recognizable)",300,1.00,6,"4 (Uniform growth, >400 colonies, single colonies still clearly recognizable)",6,6,,,,,,
9269,N=C(N)N [guanidine],,,,1.00,,,,,,,,,,
,N=C(N)N [guanidine hydrochloride],,,,,,,,,6,"4 (Uniform growth, >400 colonies, single colonies still clearly recognizable)",6,6,6,6
